“Also recorded” adds a separate entry of the source. Read-outs that look alike come from different tables or passages of the source.
How the values were obtained:
esca = conditions: 18.5 g/L injected into the trunk; cited from earlier work
[1] = system: Phaeomoniella chlamydospora; test: Mycelial growth on solid medium; conditions: for inhibition of growth, dose dependence: 5, 10 and 20 mM (whatever concentration); for inhibition of growth, dose dependence / inhibition of growth: FIG. 5 A; for inhibition of fungal development: FIG. 6 A
[2] = system: Phaeoacremonium aleophilum; test: Mycelial growth on solid medium; conditions: for inhibition of development, dose dependence: 5, 10 and 20 mM
Inonotus obliquus = conditions: concentrations of 0.9 and 9 mM; cited from earlier work
leaves = test: Tests of phytotoxicity (upper limits of amounts); format: in vivo
Description: According to the invention, the upper limits of amounts of the different products were determined in tests of phytotoxicity. First symptoms appear on the leaves at these amounts. […] These amounts can be slightly different or even greater depending on the sensitivity of the plant.

[3] = in vivo; cited from earlier work
Eutypa lata = conditions: pH 4.1; cited from earlier work
[4] = cited from earlier work
[5] = sulfate 40 mM in BNM, solid medium pH 4.2, 18 days
[6] = sulfate 40 mM in BNM, solid medium pH 4.2, 12 days
[7] = 40 mM, used as the only nitrogen source (results not shown)
[8] = Phaeomoniella chlamydospora, 432 h, pH 4.2, read-out: inhibition of growth
[9] = Phaeoacremonium minimum, 288 h, pH 4.2, read-out: inhibition of growth
[10] = Phaeomoniella chlamydospora, 432 h, pH 4.2, read-out: inhibition of mycelial development
[11] = ferrous salt 5 mM, solid medium pH 4.2, 18 days
[12] = ferrous salt 10 mM, solid medium pH 4.2, 18 days
[13] = ferrous salt 10 mM, FIG. 5 B, solid medium pH 4.2, 12 days
[14] = ferrous salt 20 mM, FIG. 5 B, solid medium pH 4.2, 12 days
[15] = 14C-labeled SA at 10 μM, after 4 hours of absorption

## O=C([O-])c1ccccc1O.[K+]
esca
  efficacy on esca: 45.4%

## O=S(=O)([O-])[O-].[Cu+2] [CuSO4, copper sulfate]
[1]; [5]
  inhibition: 100% inhibition
[1]; sulfate 40 mM in BNM, solid medium pH 4.2, 18 days, listed as copper sulfate
  inhibition: completely inhibit
[2]; [6]
  inhibition: 100% inhibition
[2]; sulfate 40 mM in BNM, solid medium pH 4.2, 12 days, listed as copper sulfate
  inhibition: completely inhibit

## O=S(=O)([O-])[O-].[K+].[K+] [K2SO4, potassium sulfate]
[1]; [5]
  inhibition: — (—: no inhibition)
[2]; [6]
  inhibition: — (—: no inhibition)

## O=S(=O)([O-])[O-].[Mg+2] [MgSO4, magnesium sulfate]
[1]; [5]
  inhibition: — (—: no inhibition)
[2]; [6]
  inhibition: — (—: no inhibition)

## N.N.O=S(=O)(O)O [ammonium sulfate]
[1]; [7]
  growth: slows the growth
[1]; [5]
  inhibition: — (—: no inhibition)
[2]; [7]
  growth: slows the growth
[2]; [6]
  inhibition: — (—: no inhibition)

## N[C@@H](CS)C(=O)O [cysteine, L-cysteine]
Inonotus obliquus
  inhibition of development: inhibits the development
[1]; [8]
  inhibition at 500 µM: 0%
  inhibition at 1000 µM: 13%
  inhibition at 5000 µM: 34%
  inhibition at 10000 µM: 80%
[2]; [9]
  inhibition at 500 µM: 11%
  inhibition at 1000 µM: 18%
  inhibition at 5000 µM: 24%
  inhibition at 10000 µM: 37%

## CCO[PH](=O)O [fosetyl-aluminum, aluminum tris-O-ethylphosphonate]
leaves; in vivo
  upper limit of amount determined in tests of phytotoxicity (first symptoms appear on the leaves): 81 mM
[3]
  pH of maximum absorption: 5.0
  time of detection in the phloem exudate after application: 30 min
[1]; [10]
  inhibition at 1000 µM: 6%
  inhibition at 1700 µM: 14%
  inhibition at 2700 µM: 46%
  inhibition at 3400 µM: 86%
[1]; fosetyl-aluminum 0.3 mM, FIG. 7 A, solid medium pH 4.2, 18 days
  inhibition of mycelial development: no effect
[2]; [9]
  inhibition at 1700 µM: ~6%
  inhibition at 2700 µM: 30%
  inhibition at 3400 µM: 45%
[2]; fosetyl-aluminum 0.3 mM, FIG. 7 B, solid medium pH 4.2, 12 days
  inhibition of growth: no effect
[2]; fosetyl-aluminum 1 mM, FIG. 7 B, solid medium pH 4.2, 12 days
  inhibition of growth: no effect

## CC(=O)[O-].CC(=O)[O-].[Fe+2] [iron acetate]
[1]
  inhibition of growth, dose dependence: dose-dependent inhibition
[1]; [11]
  inhibition of growth: 40%
[1]; [12]
  inhibition of growth: completely inhibited
[2]; FIG. 5 B
  inhibition of development, dose dependence: dose-dependent inhibition
[2]; [13]
  inhibition of growth: 45%
[2]; [14]
  inhibition of growth: completely inhibited

## O.O.O.O.O.O.O.O=S(=O)([O-])[O-].[Fe+2] [iron sulfate]
leaves; concentration in the composition
  upper limit of amount determined in tests of phytotoxicity (first symptoms appear on the leaves): 160 mM
[1]
  inhibition of growth, dose dependence: dose-dependent inhibition
[1]; FeSO4 1 mM in BNM, solid medium pH 4.2, 18 days
  inhibition: 4% inhibition
[1]; FeSO4 2.5 mM in BNM, solid medium pH 4.2, 18 days
  inhibition: 21% inhibition
[1]; FeSO4 5 mM in BNM, solid medium pH 4.2, 18 days
  inhibition: 64% inhibition
[1]; FeSO4 10 mM in BNM, solid medium pH 4.2, 18 days
  inhibition: 95% inhibition
[1]; [11]
  inhibition of growth: 65%
[1]; [12]
  inhibition of growth: not the case
[1]; [5]
  inhibition: completely inhibit
[1]; sulfate 40 mM in BNM, solid medium pH 4.2, 18 days, listed as FeSO4
  inhibition: 100% inhibition
[2]; FIG. 5 B
  inhibition of development, dose dependence: dose-dependent inhibition
[2]; FeSO4 1 mM in BNM, solid medium pH 4.2, 12 days
  inhibition: 15% inhibition
[2]; FeSO4 2.5 mM in BNM, solid medium pH 4.2, 12 days
  inhibition: 23.5% inhibition
[2]; FeSO4 5 mM in BNM, solid medium pH 4.2, 12 days
  inhibition: 33% inhibition
[2]; FeSO4 10 mM in BNM, solid medium pH 4.2, 12 days
  inhibition: 85% inhibition
[2]; ferrous salt 5 mM, FIG. 5 B, solid medium pH 4.2, 12 days
  inhibition of growth: more inhibited with iron sulfate than with iron chloride and acetate
[2]; [13]
  inhibition of growth: 75%
[2]; [14]
  inhibition of growth: slight development
[2]; [6]
  inhibition: completely inhibit
[2]; sulfate 40 mM in BNM, solid medium pH 4.2, 12 days, listed as FeSO4
  inhibition: 100% inhibition

## O=C(O)c1ccccc1O [salicylic acid, 2-hydroxybenzoic acid]
Eutypa lata
  threshold value of antifungal action: ~0.1 mM
[4]; [15]
  concentration detected in phloem sap: 100 µM
  concentration detected in xylem sap: 0.67 µM
[4]; pH between 4.6 and 5.0
  concentration factor in the phloem: ~10
[1]; [8]
  inhibition at 500 µM: 10%
  inhibition at 1000 µM: 28%
[1]; salicylic acid 0.05 mM, solid medium pH 4.2, 18 days
  inhibition of fungal development: does not inhibit
[1]; salicylic acid 0.1 mM, solid medium pH 4.2, 18 days
  inhibition of fungal development: does not inhibit
[2]; [9]
  inhibition at 500 µM: 50%
[2]; salicylic acid 0.05 mM, FIG. 6 B, solid medium pH 4.2, 12 days
  inhibition of development: slightly inhibited
[2]; salicylic acid 1 mM, FIG. 6 B, solid medium pH 4.2, 12 days
  inhibition of growth: inhibited completely

## iron chloride
[1]
  inhibition of growth, dose dependence: dose-dependent inhibition; also recorded: comparable to that obtained with iron sulfate
[1]; [12]
  inhibition of growth: not the case
[2]; FIG. 5 B
  inhibition of development, dose dependence: dose-dependent inhibition
[2]; [13]
  inhibition of growth: 75%
[2]; [14]
  inhibition of growth: completely inhibited
